The source of these data is patent US8921385B2, “5-substituted quinazolinone derivatives and compositions comprising and methods of using the same” (Celgene Corporation, priority 2006, dated 2014).

As usually defined, the melting point is the temperature, or range, at which the solid turns liquid. In turn, `Cc1cccc(C(=O)NCc2cccc3nc(C)n(C4CCC(=O)NC4=O)c(=O)c23)c1` (centres unmarked) [Example 6.50, N-[3-(2,6-Dioxo-Piperidin-3-yl)-2-Methyl-4-Oxo-3,4-Dihydro-Quinazolin-5-ylmethyl]-3-Methyl-Benzamide] came in with a melting point of 263 to 265 °C.

Take `Cc1nc2cccc(CNC(=O)c3ccc(Cl)cc3)c2c(=O)n1C1CCC(=O)NC1=O` (centres unmarked) [Example 6.51, 4-Chloro-N-[3-(2,6-Dioxo-Piperidin-3-yl)-2-Methyl-4-Oxo-3,4-Dihydro-Quinazolin-5-ylmethyl]-Benzamide]: the melting point was 276 to 278 °C.

As to `Cc1nc2cccc(CNC(=O)c3cccc(F)c3)c2c(=O)n1C1CCC(=O)NC1=O` (centres unmarked) [Example 6.52, N-[3-(2,6-Dioxo-Piperidin-3-yl)-2-Methyl-4-Oxo-3,4-Dihydro-Quinazolin-5-ylmethyl]-3-Fluoro-Benzamide], the melting point lay in the range of 240 to 242 °C.

`Cc1nc2cccc(CNC(=O)c3ccc(C(F)(F)F)cc3)c2c(=O)n1C1CCC(=O)NC1=O` (centres unmarked) [Example 6.53, N-[3-(2,6-Dioxo-Piperidin-3-yl)-2-Methyl-4-Oxo-3,4-Dihydro-Quinazolin-5-ylmethyl]-4-Trifluoromethyl-Benzamide] returned a melting point of 253 to 255 °C.

Turning to `Cc1nc2cccc(CNC(=O)c3ccc(OC(F)(F)F)cc3)c2c(=O)n1C1CCC(=O)NC1=O` (centres unmarked) [Example 6.54, N-[3-(2,6-Dioxo-Piperidin-3-yl)-2-Methyl-4-Oxo-3,4-Dihydro-Quinazolin-5-ylmethyl]-4-Trifluoromethoxy-Benzamide], the melting point was 258 to 260 °C.

For `Cc1nc2cccc(CNC(=O)c3ccccc3)c2c(=O)n1C1CCC(=O)NC1=O` (centres unmarked) [Example 6.55, N-[3-(2,6-Dioxo-Piperidin-3-yl)-2-Methyl-4-Oxo-3,4-Dihydro-Quinazolin-5-ylmethyl]-Benzamide], the melting point was in the range of 247 to 249 °C.

`Cc1nc2cccc(CNC(=O)c3ccc(Cl)c(Cl)c3)c2c(=O)n1C1CCC(=O)NC1=O` (centres unmarked) [Example 6.56, 3,4-Dichloro-N-[3-(2,6-Dioxo-Piperidin-3-yl)-2-Methyl-4-Oxo-3,4-Dihydro-Quinazolin-5-ylmethyl]-Benzamide] yielded a melting point of 271 to 273 °C.

In turn, `Cc1nc2cccc(CNC(=O)c3cccc(C(F)(F)F)c3)c2c(=O)n1C1CCC(=O)NC1=O` (centres unmarked) [Example 6.57, N-[3-(2,6-Dioxo-Piperidin-3-yl)-2-Methyl-4-Oxo-3,4-Dihydro-Quinazolin-5-ylmethyl]-3-Trifluoromethyl-Benzamide] came in with a melting point of 233 to 235 °C.
